{
  "source": "paper PMC12920294",
  "about": "“Optimizing uPAR-targeting radiopeptides for improved tissue distribution: progress towards radionuclide therapy” (European Journal of Nuclear Medicine and Molecular Imaging, 2025)",
  "key": {"[1]": {"tested_on": "HEK-uPAR xenograft-bearing mice", "conditions": "mouse, in vivo"}, "[2]": {"set-up": "method as in Beyer et al. 2025, Mol Pharm 22:3242", "conditions": "saline, L-ascorbic acid, ref Beyer et al. 2025, Mol Pharm 22:3242, cited from earlier work"}, "[3]": {"set-up": "method as in Beyer et al. 2025, Mol Pharm 22:3242", "conditions": "37 °C, ref Beyer et al. 2025, Mol Pharm 22:3242, cited from earlier work"}, "[4]": {"set-up": "method as in Beyer et al. 2025, Mol Pharm 22:3242", "conditions": "37 °C, ref Beyer et al. 2025, Mol Pharm 22:3242, cited from earlier work", "remark": "listed apart in the source"}, "[5]": {"set-up": "method as in Beyer et al. 2025, Mol Pharm 22:3242", "conditions": "FVB mice, ref Beyer et al. 2025, Mol Pharm 22:3242, cited from earlier work"}, "human serum albumin": {"target": "human serum albumin (Homo sapiens, UniProt P02768)", "sequence (P02768 25-609)": "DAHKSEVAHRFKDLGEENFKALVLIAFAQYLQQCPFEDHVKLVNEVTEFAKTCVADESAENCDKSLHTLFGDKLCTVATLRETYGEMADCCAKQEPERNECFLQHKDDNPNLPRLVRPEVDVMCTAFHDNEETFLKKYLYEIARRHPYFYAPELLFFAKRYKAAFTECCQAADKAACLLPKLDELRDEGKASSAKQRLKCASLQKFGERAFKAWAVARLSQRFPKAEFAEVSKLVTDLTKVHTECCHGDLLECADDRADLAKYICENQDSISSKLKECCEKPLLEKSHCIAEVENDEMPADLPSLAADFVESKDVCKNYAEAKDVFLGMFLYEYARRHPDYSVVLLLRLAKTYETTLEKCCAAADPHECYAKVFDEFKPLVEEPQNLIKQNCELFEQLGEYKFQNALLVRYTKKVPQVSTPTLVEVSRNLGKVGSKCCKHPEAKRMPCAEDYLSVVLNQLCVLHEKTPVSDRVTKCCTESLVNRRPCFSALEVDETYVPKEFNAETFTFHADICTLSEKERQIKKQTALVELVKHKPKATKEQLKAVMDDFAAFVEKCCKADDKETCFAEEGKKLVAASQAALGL", "conditions": "cited from earlier work"}, "[6]": {"tested_on": "HEK-uPAR xenograft-bearing mice", "conditions": "ref Beyer et al. 2025, Mol Pharm 22:3242, cited from earlier work"}, "[7]": {"assay": "Biodistribution in HEK-uPAR xenografted nude mice", "conditions": "CD1 nude, mouse, 0.5 nmol/mouse, total radioactivity, 1 h p.i., decay-corrected"}, "[8]": {"tested_on": "HEK-uPAR xenograft-bearing mice", "assay": "Biodistribution in HEK-uPAR xenografted nude mice"}, "[9]": {"conditions": "non-decay-corrected, ± standard error"}},
  "note": "Read-outs that look alike come from different tables or passages of the source. Marks after values point to notes of the source that are not given here.",
  "data": [
    {"smiles": "CC(C)C[C@H](NC(=O)[C@H](Cc1ccc(O)cc1)NC(=O)[C@@H](CCCNC(=N)N)NC(=O)[C@@H](CO)NC(=O)[C@H](Cc1ccccc1)NC(=O)[C@H](CC1CCCCC1)NC(=O)[C@H](CC(=O)O)NC(=O)CN1CCN(CC(=O)O)CCN(CC(=O)O)CCN(CC(=O)O)CC1)C(=O)N[C@@H](Cc1c[nH]c2ccccc12)C(=O)N[C@@H](CO)C(N)=O", "note": "[[^177Lu]Lu-DOTA-AE105, metal not drawn]", "values": [
      {"measurement": "Xgrft-to-kidney ratio", "setting": "[1]", "value": "0.46 ± 0.07"},
      {"measurement": "Radiolytic stability, intact radiopeptide", "setting": "[2]; 1 h", "value": "98 ± 2", "unit": "%"},
      {"measurement": "Radiolytic stability, intact radiopeptide", "setting": "[2]; 4 h", "value": "98 ± 1", "unit": "%"},
      {"measurement": "Radiolytic stability, intact radiopeptide", "setting": "[2]; 24 h", "value": "96 ± 2", "unit": "%"},
      {"measurement": "Mouse blood plasma stability, intact radiopeptide", "setting": "[3]; 1 h", "value": "61 ± 6", "unit": "%"},
      {"measurement": "Mouse blood plasma stability, intact radiopeptide", "setting": "[3]; 4 h", "value": "13 ± 7", "unit": "%"},
      {"measurement": "Mouse blood plasma stability, intact radiopeptide", "setting": "[3]; 24 h", "value": "4.6 ± 2.2", "unit": "%"},
      {"measurement": "Human blood plasma stability, intact radiopeptide", "setting": "[4]; 1 h", "value": "71 ± 3", "unit": "%"},
      {"measurement": "Human blood plasma stability, intact radiopeptide", "setting": "[4]; 4 h", "value": "13 ± 6", "unit": "%"},
      {"measurement": "Human blood plasma stability, intact radiopeptide", "setting": "[4]; 24 h", "value": "4.5 ± 1.2", "unit": "%"},
      {"measurement": "Blood plasma, intact radiopeptide", "setting": "[5]; 1 h p.i.", "value": "<1.0", "unit": "%"},
      {"measurement": "Blood plasma, radiometabolite", "setting": "[5]; 1 h p.i.", "value": ">99", "unit": "%"},
      {"measurement": "Kidneys, intact radiopeptide", "setting": "[5]; 1 h p.i.", "value": "<1.0", "unit": "%"},
      {"measurement": "Kidneys, radiometabolite", "setting": "[5]; 1 h p.i.", "value": ">99", "unit": "%"},
      {"measurement": "Liver, intact radiopeptide", "setting": "[5]; 1 h p.i.", "value": "<1.0", "unit": "%"},
      {"measurement": "Liver, radiometabolite", "setting": "[5]; 1 h p.i.", "value": ">99", "unit": "%"},
      {"measurement": "Urine, intact radiopeptide", "setting": "[5]; 1 h p.i.", "value": 1.4, "unit": "%"},
      {"measurement": "Urine, radiometabolite", "setting": "[5]; 1 h p.i.", "value": 99, "unit": "%"},
      {"measurement": "Blood plasma, intact radiopeptide", "setting": "[5]; 4 h p.i.", "value": "<1.0", "unit": "%"},
      {"measurement": "Blood plasma, radiometabolite", "setting": "[5]; 4 h p.i.", "value": ">99", "unit": "%"},
      {"measurement": "Kidneys, intact radiopeptide", "setting": "[5]; 4 h p.i.", "value": "<1.0", "unit": "%"},
      {"measurement": "Kidneys, radiometabolite", "setting": "[5]; 4 h p.i.", "value": ">99", "unit": "%"},
      {"measurement": "Liver, intact radiopeptide", "setting": "[5]; 4 h p.i.", "value": "<1.0", "unit": "%"},
      {"measurement": "Liver, radiometabolite", "setting": "[5]; 4 h p.i.", "value": ">99", "unit": "%"},
      {"measurement": "Urine, intact radiopeptide", "setting": "[5]; 4 h p.i.", "value": 2.3, "unit": "%"},
      {"measurement": "Urine, radiometabolite", "setting": "[5]; 4 h p.i.", "value": 98, "unit": "%"},
      {"measurement": "Inverse relative albumin-binding affinity", "setting": "human serum albumin", "value": "0.02^a"},
      {"measurement": "Blood uptake", "setting": "[6]; 4 h p.i.", "value": "0.08 ± 0.01", "unit": "%IA/g"},
      {"measurement": "Bone uptake", "setting": "[6]; 4 h p.i.", "value": "0.38 ± 0.03", "unit": "%IA/g"},
      {"measurement": "Brain uptake", "setting": "[6]; 4 h p.i.", "value": "<0.03", "unit": "%IA/g"},
      {"measurement": "HEK-uPAR xenograft uptake", "setting": "[6]; 4 h p.i.", "value": "0.87 ± 0.05", "unit": "%IA/g"},
      {"measurement": "Heart uptake", "setting": "[6]; 4 h p.i.", "value": "0.06 ± 0.01", "unit": "%IA/g"},
      {"measurement": "Intestines uptake", "setting": "[6]; 4 h p.i.", "value": "0.31 ± 0.03", "unit": "%IA/g"},
      {"measurement": "Kidneys uptake", "setting": "[6]; 4 h p.i.", "value": "1.5 ± 0.1", "unit": "%IA/g"},
      {"measurement": "Liver uptake", "setting": "[6]; 4 h p.i.", "value": "0.10 ± 0.01", "unit": "%IA/g"},
      {"measurement": "Lung uptake", "setting": "[6]; 4 h p.i.", "value": "0.30 ± 0.02", "unit": "%IA/g"},
      {"measurement": "Muscle uptake", "setting": "[6]; 4 h p.i.", "value": "<0.03", "unit": "%IA/g"},
      {"measurement": "Pancreas uptake", "setting": "[6]; 4 h p.i.", "value": "0.06 ± 0.01", "unit": "%IA/g"},
      {"measurement": "Salivary glands uptake", "setting": "[6]; 4 h p.i.", "value": "0.09 ± 0.01", "unit": "%IA/g"},
      {"measurement": "Spleen uptake", "setting": "[6]; 4 h p.i.", "value": "0.18 ± 0.02", "unit": "%IA/g"},
      {"measurement": "Stomach uptake", "setting": "[6]; 4 h p.i.", "value": "0.15 ± 0.03", "unit": "%IA/g"},
      {"measurement": "Xgrft-to-blood ratio", "setting": "[6]; 4 h p.i.", "value": "11 ± 1"},
      {"measurement": "Xgrft-to-liver ratio", "setting": "[6]; 4 h p.i.", "value": "8.6 ± 0.4"},
      {"measurement": "Blood uptake", "setting": "[6]; 24 h p.i.", "value": "<0.03", "unit": "%IA/g"},
      {"measurement": "Bone uptake", "setting": "[6]; 24 h p.i.", "value": "0.84 ± 0.10", "unit": "%IA/g"},
      {"measurement": "Brain uptake", "setting": "[6]; 24 h p.i.", "value": "<0.03", "unit": "%IA/g"},
      {"measurement": "HEK-uPAR xenograft uptake", "setting": "[6]; 24 h p.i.", "value": "0.40 ± 0.19", "unit": "%IA/g"},
      {"measurement": "Heart uptake", "setting": "[6]; 24 h p.i.", "value": "0.04 ± 0.01", "unit": "%IA/g"},
      {"measurement": "Intestines uptake", "setting": "[6]; 24 h p.i.", "value": "0.18 ± 0.02", "unit": "%IA/g"},
      {"measurement": "Kidneys uptake", "setting": "[6]; 24 h p.i.", "value": "1.3 ± 0.1", "unit": "%IA/g"},
      {"measurement": "Liver uptake", "setting": "[6]; 24 h p.i.", "value": "0.17 ± 0.01", "unit": "%IA/g"},
      {"measurement": "Lung uptake", "setting": "[6]; 24 h p.i.", "value": "0.21 ± 0.01", "unit": "%IA/g"},
      {"measurement": "Muscle uptake", "setting": "[6]; 24 h p.i.", "value": "<0.03", "unit": "%IA/g"},
      {"measurement": "Pancreas uptake", "setting": "[6]; 24 h p.i.", "value": "0.06 ± 0.01", "unit": "%IA/g"},
      {"measurement": "Salivary glands uptake", "setting": "[6]; 24 h p.i.", "value": "0.09 ± 0.01", "unit": "%IA/g"},
      {"measurement": "Spleen uptake", "setting": "[6]; 24 h p.i.", "value": "0.23 ± 0.04", "unit": "%IA/g"},
      {"measurement": "Stomach uptake", "setting": "[6]; 24 h p.i.", "value": "0.17 ± 0.03", "unit": "%IA/g"},
      {"measurement": "Xgrft-to-blood ratio", "setting": "[6]; 24 h p.i.", "value": "32 ± 13"},
      {"measurement": "Xgrft-to-liver ratio", "setting": "[6]; 24 h p.i.", "value": "2.4 ± 0.9"},
      {"measurement": "tissue uptake at 1 h", "setting": "[7]; HEK-uPAR xenograft, HEK-uPAR xenograft uptake", "value": "1.9 ± 0.7", "unit": "%ID/g"},
      {"measurement": "tissue uptake at 1 h", "setting": "[7]; blood, Blood uptake", "value": "0.92 ± 0.4", "unit": "%ID/g"},
      {"measurement": "tissue uptake at 1 h", "setting": "[7]; bone, Bone uptake", "value": "0.35 ± 0.11", "unit": "%ID/g"},
      {"measurement": "tissue uptake at 1 h", "setting": "[7]; brain, Brain uptake", "value": "< 0.03", "unit": "%ID/g"},
      {"measurement": "tissue uptake at 1 h", "setting": "[7]; heart, Heart uptake", "value": "0.38 ± 0.16", "unit": "%ID/g"},
      {"measurement": "tissue uptake at 1 h", "setting": "[7]; intestines, Intestines uptake", "value": "0.52 ± 0.1", "unit": "%ID/g"},
      {"measurement": "tissue uptake at 1 h", "setting": "[7]; kidneys, Kidneys uptake", "value": "4.2 ± 0.8", "unit": "%ID/g"},
      {"measurement": "tissue uptake at 1 h", "setting": "[7]; liver, Liver uptake", "value": "0.4 ± 0.14", "unit": "%ID/g"},
      {"measurement": "tissue uptake at 1 h", "setting": "[7]; lung, Lung uptake", "value": "1.2 ± 0.4", "unit": "%ID/g"},
      {"measurement": "tissue uptake at 1 h", "setting": "[7]; muscle, Muscle uptake", "value": "0.14 ± 0.06", "unit": "%ID/g"},
      {"measurement": "tissue uptake at 1 h", "setting": "[7]; pancreas, Pancreas uptake", "value": "0.26 ± 0.08", "unit": "%ID/g"},
      {"measurement": "tissue uptake at 1 h", "setting": "[7]; salivary glands, Salivary glands uptake", "value": "0.35 ± 0.13", "unit": "%ID/g"},
      {"measurement": "tissue uptake at 1 h", "setting": "[7]; spleen, Spleen uptake", "value": "0.47 ± 0.17", "unit": "%ID/g"},
      {"measurement": "tissue uptake at 1 h", "setting": "[7]; stomach, Stomach uptake", "value": "0.39 ± 0.2", "unit": "%ID/g"},
      {"measurement": "Xgrft-to-blood ratio", "setting": "[8]; 1 h p.i.", "value": "2.2 ± 0.2"},
      {"measurement": "Xgrft-to-liver ratio", "setting": "[8]; 1 h p.i.", "value": "4.9 ± 0.1"},
      {"measurement": "AUC0h→48h, HEK-uPAR xenograft", "setting": "[8]; [9]", "value": "26 ± 3", "unit": "% IA/g*h"},
      {"measurement": "AUC0h→48h, blood", "setting": "[8]; [9]", "value": "28 ± 1", "unit": "% IA/g*h"},
      {"measurement": "AUC0h→48h, kidneys", "setting": "[8]; [9]", "value": "62 ± 2", "unit": "% IA/g*h"},
      {"measurement": "AUC0h→48h, liver", "setting": "[8]; [9]", "value": "6.9 ± 0.2", "unit": "% IA/g*h"}
    ]}
  ]
}
